Measured values reported in US20220096364A1, “Oral Care Compositions Comprising Prenylated Flavonoid” (The Procter & Gamble Company, priority 2020, published 2022).
Converted amounts (≈) assume the structure as drawn.

What was measured:
[1] = test system: Streptococcus mutans (ATCC strain 25175); assay: Minimum inhibitory concentration (MIC) against Streptococcus mutans, 2-fold serial dilution in broth, visual scoring; type: cell-based; details: S. mutans ATCC 25175, TSB, overnight at 35° C., anaerobic chamber; for MIC: Streptococcus mutans, ATCC25175
Method: (§1) The minimum inhibitory concentration (MIC) values against Streptococcus mutans for a collection of prenylated flavonoids of varying octanol/water partition coefficients (Log P) were determined using a conventional protocol. A culture of Streptococcus mutans (S. mutans, ATCC strain 25175) was grown overnight (18-24 hour incubation time at 35° C.) in a Tryptone Soy Broth (TSB. BD, Becton, Dickinson and Company, Sparks, Md., USA) and adjusted to deliver a target count of between 2×10^7 and 2×10^8 CFU/mL using a turbidimetric target density at 600 nm. The inoculum was then diluted 1/1000 in TSB for S. mutans. A volume of 100 μL of inoculum was added to a row of wells (12 wells per row) of a 96-well plate for which the MIC value of a test compound would be determined. An additional 95 μL of inoculum was added to the first well in that row. For each compounded tested obtained as a pure isolate in DMSO (Phytolab GmbH, Germany), 5 μL of a stock solution (2 mg compound/mL DMSO) was also added to the first well in that row. Then, a 2-fold serial dilution was performed where 100 μL of the first well was transferred to the second well in a row and mixed with 100 μL of growth medium. This was repeated until the last well of a row was reached. In the last well, 100 μL was discarded such that all wells contained 100 μL. The plates were covered and incubated overnight at 35° C. in an anaerobic chamber (85/10/5; N2, CO2, H2) without agitation. The procedure was repeated row by row until each compound was serially diluted. Multiple plates were used if necessary. […] The MIC value was determined for each compounded tested in a row by identifying the well with the lowest concentration of test compound in the serial dilution necessary to maintain a clear well.

[2] = test system: Porphyromonas gingivalis (ATCC strain 33277); assay: Minimum inhibitory concentration (MIC) against Porphyromonas gingivalis, 2-fold serial dilution in Minimal Medium+, visual scoring; type: cell-based; details: P. gingivalis ATCC 33277, Minimal Medium+, overnight at 35° C., anaerobic chamber; for MIC: Porphyromonas gingivalis, ATCC33277
Method: The minimum inhibitory concentration (MIC) values against Porphyromonas gingivalis for a collection of prenylated flavonoids of varying octanol/water partition coefficients (Log P) were determined using a conventional protocol. A culture of Porphyromonas gingivalis (P. gingivalis, ATCC strain 33277) from glycerol stock was grown with a gas mix of 85% nitrogen, 10% CO2, and 5% hydrogen for 48-72 hours at 33° C. by inoculating a large loopful in MTGE (Anaerobe Systems, Morgan Hill, Calif., USA). Following incubation in MTGE, the optical density was adjusted to deliver a target count of between 2×10^7 and 2×10^8 CFU/mL using a turbidimetric target density at 600 nm using P. gingivalis Minimal Medium+. Minimal Medium+ is a growth medium containing 10 mM monosodium phosphate, 10 mM potassium chloride, 10 mM magnesium chloride, 7.7 μM hemin, 2.9 μM menadione, 30 g/L alphaglobuline from bovine blood, 250 μM calcium chloride, 100 mL/L fetal bovine serum, adjusted to pH 7.0 with NaOH. It is made by mixing alphaglobuline in water, adding salts, adjusting to pH 7.0 with NaOH, filtering using […] filter, then adding hemin, menadione, and fetal bovine serum.
as §1, with “The” for “The minimum inhibitory concentration (MIC) values against Streptococcus mutans for a collection of prenylated flavonoids of varying octanol/water partition coefficients (Log P) were determined using a conventional protocol. A culture of Streptococcus mutans (S. mutans, ATCC strain 25175) was grown overnight (18-24 hour incubation time at 35° C.) in a Tryptone Soy Broth (TSB. BD, Becton, Dickinson and Company, Sparks, Md., USA) and adjusted to deliver a target count of between 2×10^7 and 2×10^8 CFU/mL using a turbidimetric target density at 600 nm. The”, “1/50” for “1/1000”, “Minimal Medium+” for “TSB”, “P. gingivalis.” for “S. mutans.”

Row | MIC [1] | MIC [2] | MIC (S. mutans) [1] | MIC (P. gingivalis) [2] | SMILES
1 | 12.5 µg/mL (≈ 36.7 µM) | 50 µg/mL (≈ 147 µM) |  |  | CC(C)=CCc1c(O)cc(O)c2c1O[C@H](c1ccc(O)cc1)CC2=O [8-Prenylnaringenin]
2 |  |  | 125 ppm | 50 ppm | CC(C)=CCc1cc([C@@H]2CC(=O)c3ccc(O)c(CC=C(C)C)c3O2)cc(CC=C(C)C)c1O [(−)-Sophoranone]
3 |  |  | 3.125 ppm | 12.5 ppm | CC(C)=CCc1cc(C(=O)/C=C/c2ccc(O)cc2)c(O)cc1O [Bavachalcone]
4 | > 500 µg/mL | 31.2 µg/mL (≈ 96.3 µM) |  |  | CC(C)=CCc1cc2c(cc1O)O[C@H](c1ccc(O)cc1)CC2=O [Bavachin]
5 | > 500 µg/mL | 50 µg/mL (≈ 73.9 µM) |  |  | COc1ccc(-c2oc3c(CC=C(C)C)c(O[C@@H]4O[C@H](CO)[C@@H](O)[C@H](O)[C@H]4O)cc(O)c3c(=O)c2O[C@@H]2O[C@@H](C)[C@H](O)[C@@H](O)[C@H]2O)cc1 [Icariin]
6 | > 500 µg/mL | > 500 µg/mL |  |  | COc1ccc(-c2oc3c(CC=C(C)C)c(O)cc(O)c3c(=O)c2O)cc1 [Icaritin]
7 | 1.56 µg/mL (≈ 4.82 µM) | 12.5 µg/mL (≈ 38.5 µM) |  |  | CC(C)=CCc1c(O)ccc(C(=O)/C=C/c2ccc(O)cc2)c1O [Isobavachalcone]
8 | 50 µg/mL (≈ 141 µM) | 25 µg/mL (≈ 70.5 µM) |  |  | COc1cc(O)c(CC=C(C)C)c2c1C(=O)CC(c1ccc(O)cc1)O2 (stereo not shown) [Isoxanthohumol]
9 | 3.91 µg/mL (≈ 8.91 µM) | 15.6 µg/mL (≈ 35.6 µM) |  |  | C=C(C)[C@H](CC=C(C)C)Cc1c(O)cc(OC)c2c1O[C@H](c1ccc(O)cc1O)CC2=O [Kurarinone]
10 |  |  | 0.9766 ppm | 7.8125 ppm | CC(C)=CCc1c(-c2ccc(O)cc2O)oc2c(CC=C(C)C)c(O)cc(O)c2c1=O [Kuwanon C]
11 |  |  | 3.125 ppm | 125 ppm | CC(C)=CCc1c(-c2ccc(O)cc2O)oc2c([C@H]3C=C(C)C[C@@H](c4ccc(O)cc4O)[C@@H]3C(=O)c3ccc(O)cc3O)c(O)cc(O)c2c1=O [Kuwanon G]
12 | 12.5 µg/mL (≈ 38.8 µM) | 31.2 µg/mL (≈ 96.9 µM) |  |  | CC(C)=CCc1cc(-c2coc3cc(O)ccc3c2=O)ccc1O [Neobavaisoflavone]
13 |  |  | 0.7813 ppm | 0.488 ppm | COc1cc(O)c(C(=O)[C@@H]2[C@H](CC=C(C)C)C(C)=CC[C@H]2c2ccccc2)c(O)c1 [Panduratin A]
14 | 3.12 µg/mL (≈ 8.82 µM) | 12.5 µg/mL (≈ 35.3 µM) |  |  | COc1cc(O)c(CC=C(C)C)c(O)c1C(=O)/C=C/c1ccc(O)cc1 [Xanthohumol]

Row | SMILES | MIC [1] | MIC [2] | MIC (S. mutans) [1] | MIC (P. gingivalis) [2]
15 | CC(C)=CCc1c(O)cc2c(c1O)C(=O)C[C@@H](c1ccc(O)cc1)O2 [6-Prenylnaringenin] | 15.6 µg/mL (≈ 45.9 µM) | 25 µg/mL (≈ 73.4 µM) |  | 
16 | CC(C)=CCC/C(C)=C/Cc1cc(-c2coc3cc(O)ccc3c2=O)ccc1O [Corylifol A] |  |  | >500 ppm | 15.625 ppm
17 | C=C(C)[C@H](CC=C(C)C)Cc1c(O)cc(O)c2c1O[C@H](c1ccc(O)cc1O)CC2=O [Sophoraflavanone G] |  |  | 1.5625 ppm | 12.5 ppm
